These results are taken from patent US20090306160A1, “METHODS FOR IMPROVING DRUG DISPOSITION” (priority 2005, published 2009).

Each structure is given as a SMILES string.

In general, IC50 refers to the point on the concentration scale where inhibition reaches its midpoint. One may read the Km as the concentration of substrate that gives half-maximal velocity.

Data set [1] addresses T1, BCRP (Homo sapiens, UniProt Q9UNQ0).
T1 sequence (Q9UNQ0 1-655): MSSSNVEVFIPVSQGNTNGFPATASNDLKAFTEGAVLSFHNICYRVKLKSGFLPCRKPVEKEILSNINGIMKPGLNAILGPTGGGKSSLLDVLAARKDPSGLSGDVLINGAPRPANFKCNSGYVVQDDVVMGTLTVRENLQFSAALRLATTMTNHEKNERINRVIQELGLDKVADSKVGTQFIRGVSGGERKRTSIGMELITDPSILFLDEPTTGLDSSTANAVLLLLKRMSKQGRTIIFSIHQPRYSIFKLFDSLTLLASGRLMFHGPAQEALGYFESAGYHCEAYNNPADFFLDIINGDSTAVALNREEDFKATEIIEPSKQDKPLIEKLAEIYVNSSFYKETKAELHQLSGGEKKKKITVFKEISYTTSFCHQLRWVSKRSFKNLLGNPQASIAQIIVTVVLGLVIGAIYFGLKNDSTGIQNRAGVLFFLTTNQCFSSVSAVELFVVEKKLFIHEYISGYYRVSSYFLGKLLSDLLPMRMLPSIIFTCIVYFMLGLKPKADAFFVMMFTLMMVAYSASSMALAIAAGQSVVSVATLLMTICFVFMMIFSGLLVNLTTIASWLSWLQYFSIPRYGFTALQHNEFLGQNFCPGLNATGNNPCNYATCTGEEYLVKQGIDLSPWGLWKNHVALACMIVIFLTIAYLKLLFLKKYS
As to the kind of experiment: ATPase assay, reconstituted membranes expressing high levels of BCRP. It is filed as biochemical. The source says:
(§1) In this assay the ABC transporters remove substrates out of reconstituted cell membranes by using ATP hydrolysis as an energy source. ATP hydrolysis yields inorganic phosphate (Pi), which can be detected by a simple colorimetric reaction. The amount of Pi liberated by the transporter is proportional to the activity of the transporter. Membrane preparations containing ABC transporters show a baseline ATPase activity that varies for different transporters. Transported substrates increase this baseline ATPase activity. […] No activation of the MDR1 efflux could be observed.

The target of data set [2] is T1, BCRP. Description: Vesicular uptake assay of [3H]E1S in membrane vesicles over-expressing BCRP. It is filed as biochemical. As to conditions: [3H]E1S 0.5 μM, read-out: IC50, inhibition of [3H]E1S transport mediated by BCRP. The procedure: (§2) In this assay ATP-dependent uptake into membrane vesicles with inside-out orientation is determined. Interaction of Compound I with ABC transporters is measured indirectly by incubating the purified membrane vesicles with known radioactive probe substrates ([^3H]LTC4 [0.2 μM] for MRP2-LTC4 stands for Leutriene C4- and [^3H]E1S [0.5 μM] -E1S stands for […]—for BCRP) in the presence and absence (negative control) of different concentrations of Compound I or a well-known positive control compound (Benzbromanone for MRP2 and Sulphasalazine for BCRP). As illustrated herein (Tables 2 and 3), Compound I inhibits [^3H]E1S as well as [^3H]LTC4 transport mediated by BCRP (IC50≅1 μM) and MRP2 (IC50≅50 μM), respectively.

Data set [3] addresses T2, MRP2 (Homo sapiens, UniProt Q92887). Description: ATPase assay, reconstituted membranes expressing high levels of MRP2. Type of data set: biochemical.
Source text: as §1

For another data set, the system named is Caco-2 cell monolayers. Description: Caco-2 bi-directional permeability assay. It is filed as in vitro ADME. The conditions noted are these: Caco-2 cell monolayers. How it is done:
(§3) Alternatively, the in vitro transporter affinity of a drug substance can be determined and approximated by measuring the compound permeability across cells known to express ABC transporters, as e.g. the Caco-2 cell line. Interaction of Compound I with ABC transporter(s) is measured by determining the concentration-dependent compound transport across Caco-2 cell monolayers from the apical (AP) to basolateral (BL) as well as the basolateral to apical side.

Data set [4] can be described thus: Caco-2 bi-directional permeability assay. As to conditions: human, Caco-2. Type of data set: in vitro ADME. How it is done:
as §3
(Caco-2 cells form a polarised layer with tight junctions and transporters.)

Data set [5] concerns the target T2, MRP2. As to the kind of experiment: Vesicular uptake assay of [3H]LTC4 in membrane vesicles over-expressing MRP2. Type of data set: biochemical. The conditions noted are these: [3H]LTC4 0.2 μM; for Vesicular uptake, AMP activation / Vesicular uptake, ATP activation: MRP2 vesicles. How it is done:
as §2

The target in a further data set is MDR1 (Homo sapiens, UniProt P08183). As to the kind of experiment: ATPase assay, reconstituted membranes expressing high levels of MDR1. As to conditions: for ATPase activity: MDR1 membranes. It is filed as biochemical.
Chain of MDR1 (P08183 whole entry, species assumed): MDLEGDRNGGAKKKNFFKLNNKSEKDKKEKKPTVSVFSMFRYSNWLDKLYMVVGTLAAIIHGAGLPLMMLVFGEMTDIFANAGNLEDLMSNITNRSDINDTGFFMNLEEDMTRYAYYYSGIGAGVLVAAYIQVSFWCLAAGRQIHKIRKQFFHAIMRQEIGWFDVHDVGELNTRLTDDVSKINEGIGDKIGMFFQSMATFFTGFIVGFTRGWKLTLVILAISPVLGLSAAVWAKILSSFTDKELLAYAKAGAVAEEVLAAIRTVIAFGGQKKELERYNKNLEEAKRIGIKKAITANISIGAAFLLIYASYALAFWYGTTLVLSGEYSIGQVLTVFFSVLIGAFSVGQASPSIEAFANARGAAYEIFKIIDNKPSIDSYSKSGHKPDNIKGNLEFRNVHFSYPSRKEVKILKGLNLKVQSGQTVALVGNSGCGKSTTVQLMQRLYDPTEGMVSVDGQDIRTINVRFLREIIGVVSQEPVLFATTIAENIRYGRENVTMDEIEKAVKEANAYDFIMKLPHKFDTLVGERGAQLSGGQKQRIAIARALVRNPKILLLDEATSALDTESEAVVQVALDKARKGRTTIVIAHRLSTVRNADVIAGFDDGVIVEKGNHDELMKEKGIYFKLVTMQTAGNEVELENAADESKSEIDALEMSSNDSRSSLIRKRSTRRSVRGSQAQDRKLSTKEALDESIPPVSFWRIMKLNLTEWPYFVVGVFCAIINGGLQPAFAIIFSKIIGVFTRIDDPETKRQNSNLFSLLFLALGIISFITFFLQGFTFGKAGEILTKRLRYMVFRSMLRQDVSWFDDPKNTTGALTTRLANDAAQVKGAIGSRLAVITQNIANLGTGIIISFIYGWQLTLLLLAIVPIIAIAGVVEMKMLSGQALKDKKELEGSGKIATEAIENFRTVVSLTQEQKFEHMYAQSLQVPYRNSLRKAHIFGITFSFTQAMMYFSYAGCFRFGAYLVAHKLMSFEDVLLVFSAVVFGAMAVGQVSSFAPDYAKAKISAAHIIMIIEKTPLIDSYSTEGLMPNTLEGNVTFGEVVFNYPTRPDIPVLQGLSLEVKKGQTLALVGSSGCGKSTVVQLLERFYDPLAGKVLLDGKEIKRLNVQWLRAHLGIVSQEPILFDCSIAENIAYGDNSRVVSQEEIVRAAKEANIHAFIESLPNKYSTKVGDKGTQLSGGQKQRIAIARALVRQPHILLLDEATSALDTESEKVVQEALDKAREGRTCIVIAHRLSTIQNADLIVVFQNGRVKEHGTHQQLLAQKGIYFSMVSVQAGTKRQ
Source text: as §1

T2 sequence (Q92887 whole entry, species assumed): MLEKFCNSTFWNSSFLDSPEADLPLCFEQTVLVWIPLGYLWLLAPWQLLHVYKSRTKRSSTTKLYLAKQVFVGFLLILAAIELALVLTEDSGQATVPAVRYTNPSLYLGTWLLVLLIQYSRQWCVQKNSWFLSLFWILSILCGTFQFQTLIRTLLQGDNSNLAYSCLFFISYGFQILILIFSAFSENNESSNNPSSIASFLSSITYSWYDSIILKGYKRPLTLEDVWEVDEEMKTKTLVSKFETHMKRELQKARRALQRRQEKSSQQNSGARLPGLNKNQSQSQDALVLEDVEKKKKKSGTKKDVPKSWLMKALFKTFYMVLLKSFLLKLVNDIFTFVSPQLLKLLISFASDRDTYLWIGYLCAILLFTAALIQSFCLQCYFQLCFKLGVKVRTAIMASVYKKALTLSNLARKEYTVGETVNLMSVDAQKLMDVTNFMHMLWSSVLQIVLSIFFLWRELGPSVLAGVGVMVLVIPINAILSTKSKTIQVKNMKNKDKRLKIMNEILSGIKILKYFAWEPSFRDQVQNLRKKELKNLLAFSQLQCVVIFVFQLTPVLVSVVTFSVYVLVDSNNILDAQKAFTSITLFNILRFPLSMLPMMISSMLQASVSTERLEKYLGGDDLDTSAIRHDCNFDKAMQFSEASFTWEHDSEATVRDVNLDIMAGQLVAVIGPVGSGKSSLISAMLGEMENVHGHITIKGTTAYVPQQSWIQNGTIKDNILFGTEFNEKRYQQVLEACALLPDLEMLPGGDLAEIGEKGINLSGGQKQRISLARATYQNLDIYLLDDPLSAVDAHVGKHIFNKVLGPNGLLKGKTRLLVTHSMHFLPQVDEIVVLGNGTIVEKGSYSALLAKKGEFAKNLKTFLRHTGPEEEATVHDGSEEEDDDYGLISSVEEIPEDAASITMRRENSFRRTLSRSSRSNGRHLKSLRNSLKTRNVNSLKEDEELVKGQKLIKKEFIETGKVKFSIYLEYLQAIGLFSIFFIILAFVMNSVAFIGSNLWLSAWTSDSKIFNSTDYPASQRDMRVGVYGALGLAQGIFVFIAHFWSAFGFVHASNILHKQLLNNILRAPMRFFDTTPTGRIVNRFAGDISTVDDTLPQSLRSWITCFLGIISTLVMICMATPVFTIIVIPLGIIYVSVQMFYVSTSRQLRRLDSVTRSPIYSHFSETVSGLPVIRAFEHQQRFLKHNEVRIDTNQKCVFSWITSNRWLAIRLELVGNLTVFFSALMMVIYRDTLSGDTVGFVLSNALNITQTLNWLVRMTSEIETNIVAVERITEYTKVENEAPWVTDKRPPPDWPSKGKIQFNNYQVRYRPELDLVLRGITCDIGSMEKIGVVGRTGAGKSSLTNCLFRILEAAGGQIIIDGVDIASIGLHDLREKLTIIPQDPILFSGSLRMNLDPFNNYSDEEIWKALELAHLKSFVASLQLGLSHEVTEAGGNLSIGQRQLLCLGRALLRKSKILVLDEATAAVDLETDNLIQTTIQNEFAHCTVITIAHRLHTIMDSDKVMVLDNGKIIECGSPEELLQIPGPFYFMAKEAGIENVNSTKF

With `O=C(O)c1ccc(-n2nc(-c3ccccc3O)nc2-c2ccccc2O)cc1` [Compound I, 4-[3,5-bis(2-hydroxyphenyl)-[1,2,4]trizol-1-yl]benzoic acid], the ATPase activity on BCRP [1] (Compound I 0.04 μM) was 32.9 ± 1.0 nmol Pi/min/mg protein; at BCRP [1] (Compound I 0.13 μM) it was 35.5 ± 0.8 nmol Pi/min/mg protein; on BCRP [1] (Compound I 0.40 μM) it was 34.2 ± 8.0 nmol Pi/min/mg protein; at BCRP [1] (Compound I 1.21 μM) it was 49.4 ± 0.5 nmol Pi/min/mg protein; at BCRP [1] (Compound I 3.63 μM), 61.1 ± 0.3 nmol Pi/min/mg protein; on BCRP [1] (Compound I 10.89 μM) it was 65.9 ± 0.1 nmol Pi/min/mg protein. Moreover, the ATPase activity on BCRP [1] (Compound I 32.67 μM) is reported as 65.7 ± 0.5 nmol Pi/min/mg protein; on BCRP [1] (Compound I 98.0 μM), 60.3 ± 1.6 nmol Pi/min/mg protein; on MRP2 [3] (Compound I 0.04 μM), 5.1 ± 0.6 nmol Pi/min/mg protein; on MRP2 [3] (Compound I 0.13 μM) it was 5.4 ± 0.3 nmol Pi/min/mg protein; on MRP2 [3] (Compound I 0.40 μM), 5.4 ± 0.1 nmol Pi/min/mg protein; on MRP2 [3] (Compound I 1.21 μM), 5.1 ± 0.4 nmol Pi/min/mg protein. Also, the ATPase activity was determined as 5.0 ± 0.0 nmol Pi/min/mg protein at MRP2 [3] (Compound I 3.63 μM); 5.2 ± 0.4 nmol Pi/min/mg protein at MRP2 [3] (Compound I 10.89 μM); 6.3 ± 0.2 nmol Pi/min/mg protein at MRP2 [3] (Compound I 32.67 μM); 8.3 ± 0.7 nmol Pi/min/mg protein at MRP2 [3] (Compound I 98.0 μM); 18.7 ± 0.6 nmol Pi/min/mg protein at MDR1 (Compound I 0.04 μM); 18.0 ± 0.7 nmol Pi/min/mg protein on MDR1 (Compound I 0.13 μM). Moreover, the ATPase activity stood at 17.4 ± 1.3 nmol Pi/min/mg protein on MDR1 (Compound I 0.40 μM); 17.0 ± 1.0 nmol Pi/min/mg protein at MDR1 (Compound I 1.21 μM); 17.3 ± 0.3 nmol Pi/min/mg protein on MDR1 (Compound I 3.63 μM); 17.3 ± 0.5 nmol Pi/min/mg protein at MDR1 (Compound I 10.89 μM); 17.3 ± 0.4 nmol Pi/min/mg protein on MDR1 (Compound I 32.67 μM); 16.7 ± 0.5 nmol Pi/min/mg protein at MDR1 (Compound I 98.0 μM). For the same compound, the IC50 on BCRP [2] was about 1 µM; on MRP2 [5] (membrane vesicles, read-out: IC50, inhibition of [3H]LTC4 transport mediated by MRP2), about 50 µM. The “concentration at which bi-directional permeability values converge (complete efflux transporter saturation)” value with Caco-2 cell monolayers is given as “about 50 μM”. Besides, the efflux substrate identification entry in the data set on Caco-2 cell monolayers (AP-BL vs BL-AP transport) was “substrate for one or several prominent efflux system(s)”. Further, the Km in the data set with Caco-2 cell monolayers (bi-directional transport, read-out: apparent Km of efflux transport) was about 5 µM. In addition, the Papp A→B at 1 μM in data set [4] (apical to basolateral, conc. 1 μM, read-out: Caco-2 permeability Papp(AP-BL) (converted)) was 1 ×10⁻⁶ cm/s. Further, the Papp A→B at 5 μM in data set [4] (apical to basolateral, conc. 5 μM, read-out: Caco-2 permeability Papp(AP-BL) (converted)) is 7.67 ×10⁻⁶ cm/s. Besides, the Papp A→B at 10 μM in data set [4] (apical to basolateral, conc. 10 μM, read-out: Caco-2 permeability Papp(AP-BL) (converted)) was 11.6 ×10⁻⁶ cm/s. Also, in data set [4] (apical to basolateral, conc. 50 μM, read-out: Caco-2 permeability Papp(AP-BL) (converted)), the Papp A→B at 50 μM is 14.6 ×10⁻⁶ cm/s. The Papp B→A at 1 μM in data set [4] (basolateral to apical, conc. 1 μM, read-out: Caco-2 permeability Papp(BL-AP) (converted)) was 15.5 ×10⁻⁶ cm/s. In addition, the Papp B→A at 5 μM in data set [4] (basolateral to apical, conc. 5 μM, read-out: Caco-2 permeability Papp(BL-AP) (converted)) is 23.8 ×10⁻⁶ cm/s. Also, the Papp B→A at 10 μM in data set [4] (basolateral to apical, conc. 10 μM, read-out: Caco-2 permeability Papp(BL-AP) (converted)) was 22.2 ×10⁻⁶ cm/s. For the same compound, the Papp B→A at 50 μM in data set [4] (basolateral to apical, conc. 50 μM, read-out: Caco-2 permeability Papp(BL-AP) (converted)) is 21.5 ×10⁻⁶ cm/s. Besides, the “Vesicular uptake, AMP activation” value on MRP2 [5] (compound conc. 10 μM) is 5.4 pmol/mg/min; at MRP2 [5] (compound conc. 100 μM), 5.8 pmol/mg/min. In addition, the “Vesicular uptake, ATP activation” value came out at 25.6 pmol/mg/min on MRP2 [5] (compound conc. 10 μM) and 11.5 pmol/mg/min at MRP2 [5] (compound conc. 100 μM). The “activation of the MDR1 efflux (ATPase)” value on MDR1 (reconstituted membranes expressing high levels of MDR1) is reported as “No activation”.
For `CCCCc1oc2ccccc2c1C(=O)c1cc(Br)c(O)c(Br)c1` [Benzbromanone, reference compound], at MRP2 [5] (positive control conc. 3000 μM), the “Vesicular uptake, AMP activation” value is 11.1 pmol/mg/min and the “Vesicular uptake, ATP activation” value was determined as 10.8 pmol/mg/min.
